The record followed here is patent US20060293351A1, “Promotion of wound healing” (priority 1999, published 2006).

The test system of data set [1] is fibroblasts derived from rat urethra. The experiment in a line: cells. In kind it is cell-based. The protocol:
Urethral fibroblasts were obtained from three normal male rats, and were processed under sterile conditions. The urethra was cut into 1-2 mm pieces and rinsed several times in a solution containing 0.2 ml/10 ml penicillin/streptomycin and 50 micrograms/ml gentamycin. Each piece of urethra was placed in a 1 ml well of a 24 well plate (Greiner Labortchnik, Germany). Each well was filled with DMEM (Dulbecco's Modified Eagle's Medium), containing […] of D-glucose. 25% FCS (fetal calf serum), 0.1 ml/10 ml penicillin/streptomycin, 0.1 ml/10 ml glutamine. 50 micrograms/ml gentamycin and 2.5 micrograms/ml amphotericin B. The wells were incubated in an incubator containing 5% CO2 at 37° C. Half of the medium was replaced after 10 days. Two to three days later the cultures were trypsinized with trypsin-EDTA medium. The content of each pair of wells was combined, resuspended in DMEM and placed into one 250-ml flask containing 5 ml of medium. When the cell cultures reached confluency, they were transferred to new flasks with a 1:5 ratio of old to new medium. The concentration of FCS was then decreased to 10%.
For the evaluation of the synthesis of CDP and NCDP, cells were incubated for 24 hours with various concentrations of Halofuginone in 0.5 m glutamine-free DMEM containing 5% FCS, ascorbic acid (50 micrograms/ml), β-aminopropionitrile (50 micrograms/ml) and 2 micro-curies of [^3H]proline. At the end of the incubation period, the medium was decanted and incubated with or without collagenase for 18 hours, followed by TCA precipitation. The amount of radiolabeled collagen was estimated as the difference between total [^3H]proline containing proteins and protein remaining after collagenase digestion.

Data set [2] concerns urethral strictures. In kind it is in vivo, rats. The source says:
Tile effect of Halofuginone in post-trauma stricture formation in rats was studied. Briefly, urethral strictures were induced by catheterization and application of an electrical current to the urethra of rats. The rats were divided into four groups: untreated rats as controls (FIG. 5A); rats treated with Halofuginone but not with coagulation current (FIG. 5B); rats treated with coagulation current alone (FIG. 5C); and rats treated with both Halofuginone and coagulation current (FIG. 5D-5F).
The experiments were performed as follows. First, urethral catherization was performed on anesthetized rats with a 23 G Quik-Cath (Baxter, Ireland) sheath. A spinal needle was inserted into the sheath, and was used to apply a coagulation current at a level of 10 W to the outer end of the needle for 1 second at three locations, 8, 10 and 12 mm from the meatus, in order to produce urethral strictures. Halofuginone was given for 7 days starting at the day of stricture formation, either orally at concentrations of 1 ppm and 5 ppm in the diet, or by injection of 0.03% Halofuginone dissolved in 2% lignocaine directly into the urethra once a day. Urethral gross morphology was evaluated by urethrogram after injecting contrast material (Telebrix Megalumine 300 mg/ml. Laboratorie, Guerbet, Aulnay Sous Bios, France) into the anesthetized rat through a 23 G Quik-Cath sheath, under fluoroscopy 3 weeks after stricture formation.

Like-named read-outs stand apart in the source and are kept apart here.

In the case of `O=C(CC1NCCC[C@H]1O)Cn1cnc2cc(Br)c(Cl)cc2c1=O` (stereo partly shown) [Halofuginone], in data set [1], the number of cells entry is recorded as “did not affect”. Also, the “appearance of non-collagenase digestible proteins (NCDP)” value in data set [1] (24 hours incubation) is reported as “did not affect”. The inhibition at 0.01 µM in data set [1] (Rattus norvegicus, Fibroblast, 10^−8 M Halofuginone, 24 hours, read-out: inhibition of the levels of collagenase-digestible proteins (CDP)) was 40%. Moreover, the stricture formation result is recorded as “did not affect stricture formation” in data set [2] (1 ppm in the diet for 7 days with coagulation treatment); “did not have strictures” in data set [2] (5 ppm in the diet for 7 days with coagulation treatment); “did not have strictures” in data set [2] (locally administered (0.03% in 2% lignocaine into the urethra once a day, 7 days) with coagulation treatment); “did not have any strictures” in data set [2] (rat, in vivo).
